Measurements from ChEMBL document CHEMBL1909294, “Translating clinical findings into knowledge in drug safety evaluation--drug induced liver injury prediction system (DILIps)” (PLoS Comput Biol, 2011).

Legend:
[1] = tested on: Hepatotoxicity;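 for HepSE bilirubinemia: bilirubinemia hepatic side effect score drawn from the DILIps training data, a prediction system for drug-induced liver injury; call rule not given here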;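 for HepSE cholecystitis: Cholecystitis-related hepatic side effect score drawn from the DILIps (drug-induced liver injury prediction) training data set; call rule not given here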;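 for HepSE cholelithiasis: hepatic side effect score for cholelithiasis, drawn from the DILIps training data for predicting drug-induced liver injury; call rule not given here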;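 for HepSE cirrhosis: cirrhosis hepatic side effect score taken from the DILIps (drug-induced liver injury prediction) training set; call rule not given here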;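 for HepSE elevated liver function tests: hepatic side effect score for raised liver function tests, as recorded in the DILIps training set used for predicting drug-induced liver injury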; for HepSE hepatic failure: call rule not given here;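 for HepSE hepatomegaly: hepatic side effect score for hepatomegaly, taken from the training set of the DILIps drug-induced liver injury prediction system; call rule not given here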
[2] = tested on: Hepatotoxicity; remark: listed apart in the source;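 for HepSE bilirubinemia: bilirubinemia hepatic side effect score drawn from the DILIps training data, a prediction system for drug-induced liver injury; call rule not given here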;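 for HepSE cholecystitis: Cholecystitis-related hepatic side effect score drawn from the DILIps (drug-induced liver injury prediction) training data set; call rule not given here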;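 for HepSE cholelithiasis: hepatic side effect score for cholelithiasis, drawn from the DILIps training data for predicting drug-induced liver injury; call rule not given here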;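 for HepSE cirrhosis: cirrhosis hepatic side effect score taken from the DILIps (drug-induced liver injury prediction) training set; call rule not given here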;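 for HepSE elevated liver function tests: hepatic side effect score for raised liver function tests, as recorded in the DILIps training set used for predicting drug-induced liver injury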; for HepSE hepatic failure: call rule not given here
[3] = tested on: Hepatotoxicity; remark: listed apart in the source;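 for HepSE bilirubinemia: bilirubinemia hepatic side effect score drawn from the DILIps training data, a prediction system for drug-induced liver injury; call rule not given here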;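 for HepSE cholecystitis: Cholecystitis-related hepatic side effect score drawn from the DILIps (drug-induced liver injury prediction) training data set; call rule not given here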;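 for HepSE cholelithiasis: hepatic side effect score for cholelithiasis, drawn from the DILIps training data for predicting drug-induced liver injury; call rule not given here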;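 for HepSE cirrhosis: cirrhosis hepatic side effect score taken from the DILIps (drug-induced liver injury prediction) training set; call rule not given here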;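 for HepSE elevated liver function tests: hepatic side effect score for raised liver function tests, as recorded in the DILIps training set used for predicting drug-induced liver injury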; for HepSE hepatic failure: call rule not given here
[4] = tested on: Hepatotoxicity; remark: listed apart in the source;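 for HepSE bilirubinemia: bilirubinemia hepatic side effect score drawn from the DILIps training data, a prediction system for drug-induced liver injury; call rule not given here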;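 for HepSE cholecystitis: Cholecystitis-related hepatic side effect score drawn from the DILIps (drug-induced liver injury prediction) training data set; call rule not given here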;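 for HepSE cholelithiasis: hepatic side effect score for cholelithiasis, drawn from the DILIps training data for predicting drug-induced liver injury; call rule not given here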;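 for HepSE cirrhosis: cirrhosis hepatic side effect score taken from the DILIps (drug-induced liver injury prediction) training set; call rule not given here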;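 for HepSE elevated liver function tests: hepatic side effect score for raised liver function tests, as recorded in the DILIps training set used for predicting drug-induced liver injury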; for HepSE hepatic failure: call rule not given here
[5] = tested on: Hepatotoxicity; remark: listed apart in the source; for HepSE hepatic failure: call rule not given here
[6] = tested on: Hepatotoxicity; remark: listed apart in the source; for HepSE hepatic failure: call rule not given here
[7] = tested on: Hepatotoxicity; remark: listed apart in the source
[8] = tested on: Hepatotoxicity; remark: listed apart in the source
[9] = tested on: Hepatotoxicity; remark: listed apart in the source
[10] = tested on: Hepatotoxicity; remark: listed apart in the source
[11] = tested on: Hepatotoxicity; remark: listed apart in the source
[12] = tested on: Hepatotoxicity; remark: listed apart in the source
[13] = tested on: Hepatotoxicity; remark: listed apart in the source
[14] = tested on: Hepatotoxicity; remark: listed apart in the source

SMILES: CCN(CC)C(C)C(=O)c1ccccc1 (configuration not stated) [DIETHYLPROPION]
- HepSE_bilirubinemia [1]: 0
- HepSE_cholecystitis [2]: 0
- HepSE_cholelithiasis [3]: 0
- HepSE_cirrhosis [4]: 0
- HepSE_elevated liver function tests [5]: 0
- HepSE_hepatic failure [6]: 0
- HepSE_hepatic necrosis [7]: 0
- HepSE_hepatitis [8]: 0
- HepSE_hepatomegaly [9]: 0
- HepSE_jaundice [10]: 0
- HepSE_liver disease [11]: 0
- HepSE_liver fatty [12]: 0
- HepSE_liver function tests abnormal [13]: 0
- HepSE_Combined Scores [14]: 0

SMILES: [Ca+2].[H-].[H-]
- HepSE_bilirubinemia [1]: 0
- HepSE_cholecystitis [2]: 0
- HepSE_cholelithiasis [3]: 0
- HepSE_cirrhosis [4]: 0
- HepSE_elevated liver function tests [5]: 0
- HepSE_hepatic failure [6]: 0
- HepSE_hepatic necrosis [7]: 0
- HepSE_hepatitis [8]: 0
- HepSE_hepatomegaly [9]: 0
- HepSE_jaundice [10]: 0
- HepSE_liver disease [11]: 0
- HepSE_liver fatty [12]: 0
- HepSE_liver function tests abnormal [13]: 0
- HepSE_Combined Scores [14]: 0

SMILES: COC(=O)CCC(=O)CN [METHYL AMINOLEVULINATE]
- HepSE_bilirubinemia [1]: 0
- HepSE_cholecystitis [2]: 0
- HepSE_cholelithiasis [3]: 0
- HepSE_cirrhosis [4]: 0
- HepSE_elevated liver function tests [5]: 0
- HepSE_hepatic failure [6]: 0
- HepSE_hepatic necrosis [7]: 0
- HepSE_hepatitis [8]: 0
- HepSE_hepatomegaly [9]: 0
- HepSE_jaundice [10]: 0
- HepSE_liver disease [11]: 0
- HepSE_liver fatty [12]: 0
- HepSE_liver function tests abnormal [13]: 0
- HepSE_Combined Scores [14]: 0

SMILES: CC(C)NCC(O)COc1cccc2[nH]ccc12 (configuration not stated) [PINDOLOL]
- HepSE_bilirubinemia [1]: 0
- HepSE_cholecystitis [2]: 0
- HepSE_cholelithiasis [3]: 0
- HepSE_cirrhosis [4]: 0
- HepSE_elevated liver function tests [5]: 0
- HepSE_hepatic failure [6]: 0
- HepSE_hepatic necrosis [7]: 0
- HepSE_hepatitis [8]: 0
- HepSE_hepatomegaly [9]: 0
- HepSE_jaundice [10]: 0
- HepSE_liver disease [11]: 0
- HepSE_liver fatty [12]: 0
- HepSE_liver function tests abnormal [13]: 0
- HepSE_Combined Scores [14]: 0

SMILES: COc1ccc2c3c1O[C@H]1C(=O)CC[C@@]4(O)[C@@H](C2)N(C)CC[C@]314 [OXYCODONE]
- HepSE_bilirubinemia ([1]; Liver): 0
- HepSE_cholecystitis ([2]; Liver): 0
- HepSE_cholelithiasis ([3]; Liver): 0
- HepSE_cirrhosis ([4]; Liver): 0
- HepSE_elevated liver function tests ([5]; Liver): 0
- HepSE_hepatic failure ([6]; Liver): 0
- HepSE_hepatic necrosis ([7]; Liver): 0
- HepSE_hepatitis ([8]; Liver): 0
- HepSE_hepatomegaly ([9]; Liver): 1
- HepSE_jaundice ([10]; Liver): 0
- HepSE_liver disease ([11]; Liver): 0
- HepSE_liver fatty ([12]; Liver): 0
- HepSE_liver function tests abnormal ([13]; Liver): 0
- HepSE_Combined Scores ([14]; Liver): 1

SMILES: CCS(=O)(=O)CCn1c([N+](=O)[O-])cnc1C [TINIDAZOLE]
- HepSE_bilirubinemia [1]: 0
- HepSE_cholecystitis [2]: 0
- HepSE_cholelithiasis [3]: 0
- HepSE_cirrhosis [4]: 0
- HepSE_elevated liver function tests [5]: 0
- HepSE_hepatic failure [6]: 0
- HepSE_hepatic necrosis [7]: 0
- HepSE_hepatitis [8]: 0
- HepSE_hepatomegaly [9]: 0
- HepSE_jaundice [10]: 0
- HepSE_liver disease [11]: 0
- HepSE_liver fatty [12]: 0
- HepSE_liver function tests abnormal [13]: 0
- HepSE_Combined Scores [14]: 0

SMILES: Clc1ccc(CO/N=C(\Cn2ccnc2)c2ccc(Cl)cc2Cl)c(Cl)c1 [OXICONAZOLE]
- HepSE_bilirubinemia [1]: 0
- HepSE_cholecystitis [2]: 0
- HepSE_cholelithiasis [3]: 0
- HepSE_cirrhosis [4]: 0
- HepSE_elevated liver function tests ([5]; Liver): 0
- HepSE_hepatic failure [6]: 0
- HepSE_hepatic necrosis [7]: 0
- HepSE_hepatitis [8]: 0
- HepSE_hepatomegaly [9]: 0
- HepSE_jaundice [10]: 0
- HepSE_liver disease [11]: 0
- HepSE_liver fatty [12]: 0
- HepSE_liver function tests abnormal ([13]; Liver): 0
- HepSE_Combined Scores [14]: 0

SMILES: CCCCCN(C)CCC(O)(P(=O)(O)O)P(=O)(O)O [IBANDRONIC ACID]
- HepSE_bilirubinemia [1]: 0
- HepSE_cholecystitis [2]: 0
- HepSE_cholelithiasis [3]: 0
- HepSE_cirrhosis [4]: 0
- HepSE_elevated liver function tests [5]: 0
- HepSE_hepatic failure [6]: 0
- HepSE_hepatic necrosis [7]: 0
- HepSE_hepatitis [8]: 0
- HepSE_hepatomegaly [9]: 0
- HepSE_jaundice [10]: 0
- HepSE_liver disease [11]: 0
- HepSE_liver fatty [12]: 0
- HepSE_liver function tests abnormal [13]: 0
- HepSE_Combined Scores [14]: 0

SMILES: c1cnc2cc3c(cc2n1)[C@@H]1CNC[C@H]3C1 [VARENICLINE]
- HepSE_bilirubinemia [1]: 0
- HepSE_cholecystitis [2]: 0
- HepSE_cholelithiasis [3]: 0
- HepSE_cirrhosis [4]: 0
- HepSE_elevated liver function tests [5]: 0
- HepSE_hepatic failure [6]: 0
- HepSE_hepatic necrosis [7]: 0
- HepSE_hepatitis [8]: 0
- HepSE_hepatomegaly [9]: 0
- HepSE_jaundice [10]: 0
- HepSE_liver disease [11]: 0
- HepSE_liver fatty [12]: 0
- HepSE_liver function tests abnormal [13]: 1
- HepSE_Combined Scores [14]: 1

SMILES: NC(=O)N1c2ccccc2C=Cc2ccccc21 [CARBAMAZEPINE]
- HepSE_bilirubinemia [1]: 0
- HepSE_cholecystitis [2]: 0
- HepSE_cholelithiasis [3]: 0
- HepSE_cirrhosis [4]: 0
- HepSE_elevated liver function tests [5]: 0
- HepSE_hepatic failure [6]: 1
- HepSE_hepatic necrosis [7]: 0
- HepSE_hepatitis [8]: 1
- HepSE_hepatomegaly [9]: 0
- HepSE_jaundice [10]: 1
- HepSE_liver disease [11]: 0
- HepSE_liver fatty [12]: 0
- HepSE_liver function tests abnormal [13]: 1
- HepSE_Combined Scores [14]: 4

SMILES: Cc1ccc(O)c([C@H](CCN(C(C)C)C(C)C)c2ccccc2)c1 [TOLTERODINE]
- HepSE_bilirubinemia [1]: 0
- HepSE_cholecystitis [2]: 0
- HepSE_cholelithiasis [3]: 0
- HepSE_cirrhosis [4]: 0
- HepSE_elevated liver function tests [5]: 0
- HepSE_hepatic failure [6]: 0
- HepSE_hepatic necrosis [7]: 0
- HepSE_hepatitis [8]: 0
- HepSE_hepatomegaly [9]: 0
- HepSE_jaundice [10]: 0
- HepSE_liver disease [11]: 0
- HepSE_liver fatty [12]: 0
- HepSE_liver function tests abnormal [13]: 0
- HepSE_Combined Scores [14]: 0

SMILES: Clc1ccc(COC(Cn2ccnc2)c2ccc(Cl)cc2Cl)cc1 (configuration not stated) [ECONAZOLE]
- HepSE_bilirubinemia [1]: 0
- HepSE_cholecystitis [2]: 0
- HepSE_cholelithiasis [3]: 0
- HepSE_cirrhosis [4]: 0
- HepSE_elevated liver function tests [5]: 0
- HepSE_hepatic failure [6]: 0
- HepSE_hepatic necrosis [7]: 0
- HepSE_hepatitis [8]: 0
- HepSE_hepatomegaly [9]: 0
- HepSE_jaundice [10]: 0
- HepSE_liver disease [11]: 0
- HepSE_liver fatty [12]: 0
- HepSE_liver function tests abnormal [13]: 0
- HepSE_Combined Scores [14]: 0

SMILES: N=C(N)NC(=O)Cc1c(Cl)cccc1Cl [GUANFACINE]
- HepSE_bilirubinemia [1]: 0
- HepSE_cholecystitis [2]: 0
- HepSE_cholelithiasis [3]: 0
- HepSE_cirrhosis [4]: 0
- HepSE_elevated liver function tests [5]: 0
- HepSE_hepatic failure [6]: 0
- HepSE_hepatic necrosis [7]: 0
- HepSE_hepatitis [8]: 0
- HepSE_hepatomegaly [9]: 0
- HepSE_jaundice [10]: 0
- HepSE_liver disease [11]: 0
- HepSE_liver fatty [12]: 0
- HepSE_liver function tests abnormal [13]: 1
- HepSE_Combined Scores [14]: 1
